The values below come from patent publication EP0292023A2, “Pyrimidine derivatives” (F. HOFFMANN-LA ROCHE AG, priority 1987, dated 1988).

Test [1] deals with HTLV III (Stamm RF). As to the kind of experiment: Activity against HIV (p24 antigen capture assay in infected C8166 cells). As to conditions: concentration giving 50% protection; C8166 cells infected with 10-fold TCD₅₀, 72 h incubation at 37°C, viral protein 24 antigen in supernatant; read-out: IC₅₀. In kind it is cell-based. The method, then:
(B) Wirksamkeit gegen HIV
In diesem Versuch verwendet man HTLV III (Stamm RF), gezüchtet in C8166-Zellen (eine menschliche CD4⁺ T-Lymphoblastenlinie), RPM1 1640 Medium mit Bicarbonatpuffer, Antibiotika und 10%igem fötalem Rinderserum. Eine Zellensuspen sion wird mit der 10-fachen TCD₅₀ des Virus infiziert. Man lässt 90 Minuten bei 37°C adsorbieren. Die Zellen werden mit dem Medium gewaschen. Der Versuch wird in 6 ml Gewebekulturröhren durchgeführt. Jedes Rohr enthalt 2 x 10⁵ infizierte Zellen in 1,5 ml Medium. Es werden 15 µl einer Lösung der Substanz in wässrigem Medium oder in DMSO zugesetzt. Nach 72 Stunden Inkubation bei 37°C in einer feuchten 5% CO₂ enthaltenden Atmosphäre werden die Kulturen zentrifugiert. Ein aliquoter Teil des Ueberstandes wird solubilisiert und einem Antigenabfangversuch unterworfen unter Verwendung eines primären Antiserums mit besonderer Reaktivität gegen virales Protein 24 und eines Meerrettich-Peroxidase-Detektionssystems. Die Farbenerzeugung wird spektrophotometrisch gemessen und in Abhängigkeit der Konzentration der Testsubstanz dargestellt. Die einen 50%igen Schutz erzeugende Konzentration (IC₅₀) wird ermittelt. In diesem Test hat DFAC ein IC₅₀ von 1 µM.

In test [2] the test system is Schaf-Lentiviren des Stammes WLC-1. As to the kind of experiment: Activity against sheep lentivirus (protection from cytopathic effect in SCP cells). In kind it is cell-based. As to conditions: minimal concentration giving 100% protection from cytopathic effect, 12 days incubation at 37°C, crystal violet staining, visual reading. The source says: (A) Aktivität gegen Schaf-Lentiviren
In diesem Versuch verwendet man Schaf-Lentiviren des Stammes WLC-1, der im Plexus chorioideus (SCP) des Schafs mit 10% fötalem Rinderserum enthaltenden Medium gezüchtet wurde. Die Verbindungen werden in 96 Vertiefungen enthaltenden Platten getestet. Jede Vertiefung enthält 10⁴SCP-Zellen, die 48 Stunden inkubiert wurden. Die Testverbindungen werden, gelöst in Dimethylsulfoxid (DMSO), bis zu einer Endkonzentration von 1% DMSO hinzugefügt, zusammen mit einem Virus-Inokulum, das innert 12 Tagen einen 100%igen cytopathischen Effekt bewirkt. Nach 12-tägiger Inkubation bei 37°C werden die Platten mit Kristallviolett angefärbt. Effekt in den die Testverbindungen enthaltenden Vertiefungen wird visuell durch Vergleich mit lediglich den Virus enthaltenden Vertiefungen und nicht-infizierten Vertiefungen ermittelt. Die Wirksamkeit (MPC) ist die minimale Konzentration der Testverbindung, die einen 100%igen Schutz bewirkt. In diesem Versuch hat DFAC einen MPC von 2,5 µM.

As to `Nc1ccn([C@@H]2O[C@H](CO)C[C@@H]2F)c(=O)n1` [DFAC, 1-(2′,3′-Dideoxy-2′-fluor-b-D-arabinofuranosyl)cytosin], the IC50 in test [1] turned out to be 1 µM. Further, in test [2], the MPC is on record as 2,5 µM.
